Test results as given in patent US9828350B2, “5,6-dihydro-2H-[1,4]oxazin-3-yl-amine derivatives useful as inhibitors of beta-secretase (BACE)” (Janssen Pharmaceutica NV, priority 2010, dated 2017).

What was measured:
Abeta 1-42 = test: Cellular αLisa assay in SKNBE2 cells, Abeta 1-42; format: cell-based, human; conditions: incubated for 18 hours; for IC50: Homo sapiens, SKNBE2, 18 h, read-out: Cellular αLisa assay in SKNBE2 cells Abeta 42 pIC50 (converted)
Summary of the method: (§1)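 Secreted Abeta levels were measured by sandwich αLisa, pairing biotin-AbN/25 donor beads with Ab4G8 acceptor beads for total Abeta or cAb42/26 for Abeta 1-42, read at 615 nm after 650 nm excitation following 1 hour. Cells were SKNBE2 expressing wild-type hAPP695, exposed to compound for 18 hours.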

Abeta total = test: Cellular αLisa assay in SKNBE2 cells, Abeta total; format: cell-based, human; conditions: incubated for 18 hours; for IC50: Homo sapiens, SKNBE2, 18 h, read-out: Cellular αLisa assay in SKNBE2 cells Abetatotal pIC50 (converted)
Summary of the method: as §1

[1] = biological target: recombinant BACE1 protein (Homo sapiens, UniProt P56817); test: Biochemical FRET based assay; conditions: recombinant BACE1 1 μg/ml, 120 minutes at room temperature, pH 5.0; read-out: Biochemical FRET based assay pIC50 (converted)
Chain of recombinant BACE1 protein (P56817 46-501): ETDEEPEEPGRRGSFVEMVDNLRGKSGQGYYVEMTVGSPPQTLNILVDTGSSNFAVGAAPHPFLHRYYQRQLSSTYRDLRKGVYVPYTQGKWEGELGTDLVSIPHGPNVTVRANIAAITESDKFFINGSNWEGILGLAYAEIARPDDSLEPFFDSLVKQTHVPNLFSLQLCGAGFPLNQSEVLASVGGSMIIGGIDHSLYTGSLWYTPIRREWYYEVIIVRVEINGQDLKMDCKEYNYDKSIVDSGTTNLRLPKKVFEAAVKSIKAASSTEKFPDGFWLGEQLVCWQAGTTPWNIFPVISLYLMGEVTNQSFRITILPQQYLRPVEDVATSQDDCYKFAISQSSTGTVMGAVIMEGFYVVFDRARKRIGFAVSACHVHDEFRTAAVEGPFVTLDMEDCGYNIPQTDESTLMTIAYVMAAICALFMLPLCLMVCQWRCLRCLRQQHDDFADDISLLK
Summary of the method: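 Proteolysis was read as the rise in donor fluorescence (320 nm excitation, 405 nm emission) from T0 to T120, expressed in RFU. The reaction ran 120 minutes at room temperature at pH 5.0 in citrate buffer with 4% DMSO, using […] quenched Swedish APP peptide and 1 μg/ml BACE1.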

P-gp = biological target: T1, P-gp (Homo sapiens, UniProt P08183); test: Transepithelial transport of test compounds through LLC-MDR1 monolayers; format: in vitro ADME; conditions: for efflux ratio at 120 min, 1 μM / Papp A→B at 120 min, 1 μM / Papp B→A at 120 min, 1 μM: pig, LLC-PK1; for efflux ratio at 120 min, 1 μM: ratio of B to A and A to B permeation rates, read-out: BA/AB; for Papp A→B at 120 min, 1 μM: read-out: A to B (Apparent Permeability, Papp); for Papp B→A at 120 min, 1 μM: read-out: B to A (Apparent Permeability, Papp)
T1 construct: expressed in transfected cells; host or cells: LLC-PK1 cells stably transduced with MDR1 (LLC-MDR1)
T1 sequence (P08183 whole entry): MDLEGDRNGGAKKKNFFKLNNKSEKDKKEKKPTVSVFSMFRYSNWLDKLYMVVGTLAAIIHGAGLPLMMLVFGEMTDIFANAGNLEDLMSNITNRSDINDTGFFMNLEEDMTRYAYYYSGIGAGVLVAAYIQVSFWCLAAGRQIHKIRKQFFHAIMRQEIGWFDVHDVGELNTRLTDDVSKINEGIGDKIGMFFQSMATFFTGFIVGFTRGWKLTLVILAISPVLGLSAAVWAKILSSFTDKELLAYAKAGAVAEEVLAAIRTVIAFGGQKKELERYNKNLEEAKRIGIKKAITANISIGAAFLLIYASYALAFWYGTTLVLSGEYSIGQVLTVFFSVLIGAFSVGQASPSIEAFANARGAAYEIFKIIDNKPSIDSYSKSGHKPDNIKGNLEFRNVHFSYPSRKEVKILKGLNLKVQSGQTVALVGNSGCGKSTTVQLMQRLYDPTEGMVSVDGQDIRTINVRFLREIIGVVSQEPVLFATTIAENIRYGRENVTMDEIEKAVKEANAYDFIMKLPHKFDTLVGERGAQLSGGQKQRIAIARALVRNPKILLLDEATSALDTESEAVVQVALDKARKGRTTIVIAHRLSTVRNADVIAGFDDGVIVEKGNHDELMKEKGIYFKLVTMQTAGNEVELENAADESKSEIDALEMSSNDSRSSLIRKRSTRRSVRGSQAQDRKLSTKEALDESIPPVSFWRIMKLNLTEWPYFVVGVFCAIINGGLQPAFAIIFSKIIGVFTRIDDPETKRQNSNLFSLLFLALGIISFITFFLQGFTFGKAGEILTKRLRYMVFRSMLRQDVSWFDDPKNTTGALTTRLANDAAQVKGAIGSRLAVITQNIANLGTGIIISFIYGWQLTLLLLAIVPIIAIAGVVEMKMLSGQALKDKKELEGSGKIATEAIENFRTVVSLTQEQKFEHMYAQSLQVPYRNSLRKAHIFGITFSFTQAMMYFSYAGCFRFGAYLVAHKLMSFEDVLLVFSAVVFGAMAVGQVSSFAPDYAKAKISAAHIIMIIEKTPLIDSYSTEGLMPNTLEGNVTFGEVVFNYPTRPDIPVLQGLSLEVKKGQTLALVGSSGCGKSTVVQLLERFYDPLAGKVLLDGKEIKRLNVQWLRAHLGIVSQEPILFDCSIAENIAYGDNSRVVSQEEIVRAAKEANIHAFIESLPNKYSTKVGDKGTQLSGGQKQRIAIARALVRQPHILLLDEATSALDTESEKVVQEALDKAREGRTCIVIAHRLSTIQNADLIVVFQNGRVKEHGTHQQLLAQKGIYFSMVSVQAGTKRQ
Experimental: Brief Assay Description for the Measurement of Transepithelial Transport of Test Compounds Through LLC-MDR1 Monolayers
The purpose of this assay was to assess both the in vitro passive permeability of test compounds and their ability to be transported substrates of P-gp using LLC-PK1 cells stably transduced with MDR1 in a trans-well system. The positive control for transport was ^3H-digoxin (30 nM) and the positive control inhibitor was GF120918 (5 μM). The marker compound for low permeability was ^14C-Mannitol (1 μM). The test compound concentration was 1 μM.
The integrity of the cellular monolayer was assessed in each incubation well through the inclusion of the fluorescent, low permeability marker compound, Fluorescein.
In detail, LLC-MDR1 cells were seeded on 24-well cell culture inserts (Millicell®-PCF, 0.4 μm, 13 mm diameter, 0.7 cm^2) at 400,000 cells/cm^2. Cell culture medium consisted of Medium 199 supplemented with 10% Foetal Bovine Serum (FBS) and 100 U/ml Penicillin/streptomycin and was replaced the day after seeding and the day before the experiment. The transport experiment was performed 5 days after seeding. On the day of the experiment, solutions of the test compounds were applied to the apical or basolateral side of the monolayers to assess transport in the A to B and B to A directions, respectively. The medium used in the assay was (OPTI-MEM (1×) (GIBCO) with 1 w/v % Bovine Serum Albumin. Inserts were incubated at 37° C. in a humidified incubator containing 5% CO2. Samples from the acceptor and donor compartments were collected after an incubation time of 120 min, to assess the permeability and to allow estimation of the test compound recovery during the experiment, respectively. Transport experiments were performed in triplicate. Absolute test compound concentrations were measured using LC-MS/MS and quantified via a calibration curve.

| Structure (SMILES) | Cellular αLisa assay in SKNBE2 cells Abeta 42 pIC50 (Abeta 1-42) | Cellular αLisa assay in SKNBE2 cells Abetatotal pIC50 (Abeta total) | IC50 [1] [nM] | efflux ratio at 120 min, 1 μM (P-gp; LLC-MDR1 monolayers) | Papp A→B at 120 min, 1 μM (P-gp) [×10⁻⁶ cm/s] | Papp B→A at 120 min, 1 μM (P-gp) [×10⁻⁶ cm/s] | A to B (Apparent Permeability, Papp) (P-gp; LLC-MDR1 monolayers, 1 μM test compound, 120 minutes, apical to basolateral, absence of GF120918) [×10⁻⁶ cm/s] | B to A (Apparent Permeability, Papp) (P-gp; LLC-MDR1 monolayers, 1 μM test compound, 120 minutes, basolateral to apical) [×10⁻⁶ cm/s] | melting point [°C] | IC50 (Abeta 1-42) [nM] | IC50 (Abeta total) [nM] |
| --- | --- | --- | --- | --- | --- | --- | --- | --- | --- | --- | --- |
| COc1cncc(-c2cccc(C3(C)N=C(N)COC3F)c2)c1 (single isomer, unassigned) [Compound 93] | 6.98 | 6.97 | 468 | 4.6 | 7.4 | 34.3 | – | – | – | – | – |
| CC1(c2cccc(NC(=O)c3ccc(Cl)cn3)c2)N=C(N)COC1(F)C(F)(F)F (single isomer, unassigned) [Compound 113] | 7.53 | 7.52 | – | – | 9 | 9.8 | – | – | – | – | – |
| COc1cncc(-c2cccc(C3(C)N=C(N)COC3(F)C(F)(F)F)c2)c1 (single isomer, unassigned) [Compound 118] | 7.23 | 7.18 | 191 | 1.3 | 12 | 15 | – | – | – | – | – |
| COc1cnc(C(=O)Nc2ccc(F)c([C@]3(C)COCC(N)=N3)c2)cn1 [Compound 39] | 8.27 | 8.38 | – | – | – | – | 3.7 | 34.2 | – | – | – |
| C[C@]1(c2cc(NC(=O)c3ncc(Cl)cc3Cl)ccc2F)N=C(N)CO[C@@]1(F)C(F)(F)F [Compound 181] | – | – | 26.3 | – | – | – | – | – | 200.16 | 13.5 | 13.5 |
| C[C@]1(c2cc(NC(=O)c3ccc(C#N)cn3)ccc2F)N=C(N)CO[C@@]1(F)C(F)(F)F [Compound 183] | – | – | 40.7 | – | – | – | – | – | 196.01 | 14.5 | 13.8 |
| COc1cnc(C(=O)Nc2ccc(F)c([C@@]3(C)N=C(N)CO[C@]3(F)C(F)(F)F)c2)cn1 [Compound 184] | – | – | 407 | – | – | – | – | – | 198.43 | 363 | 363 |
| C[C@]1(c2cc(NC(=O)c3ncc(Cl)cc3Cl)ccc2F)N=C(N)CO[C@]1(F)C(F)(F)F [Compound 185] | – | – | 166 | – | – | – | – | – | 165.14 | 200 | 195 |
| CC1(c2cc(NC(=O)c3ccc(Cl)cn3)cc(C(F)(F)F)c2)COCC(N)=N1 (stereo not drawn) [Compound 197] | – | – | 1000 | – | – | – | – | – | 175.32 | 170 | 166 |
| COc1ccc(C(=O)Nc2ccc(F)c([C@@]3(C)N=C(N)CO[C@@H]3F)c2)nc1 [Compound 208] | – | – | 26.9 | – | – | – | – | – | 185.6 | 11 | 10 |
| C[C@]1(c2cc(-c3cncnc3)c(F)cc2F)N=C(N)CO[C@]1(F)C(F)(F)F [Compound 210] | – | – | 12000 | – | – | – | – | – | > 300 | > 10000 | > 10000 |
| C[C@]1(c2cc(-c3cncnc3)c(F)cc2F)N=C(N)CO[C@@]1(F)C(F)(F)F [Compound 211] | – | – | 1410 | – | – | – | – | – | 62 | 2190 | 1740 |
| C[C@]1(c2cc(-c3cncc(Cl)c3)c(F)cc2F)N=C(N)CO[C@]1(F)C(F)(F)F [Compound 212] | – | – | 6460 | – | – | – | – | – | 145.3 | > 10000 | > 10000 |
| C[C@]1(c2cc(-c3cncc(Cl)c3)c(F)cc2F)N=C(N)CO[C@@]1(F)C(F)(F)F [Compound 213] | – | – | 437 | – | – | – | – | – | 70.1 | 4070 | 3720 |
| N#Cc1ccc(C(=O)Nc2ccc(F)c([C@@]3(C4CC4)N=C(N)CO[C@H]3C(F)(F)F)c2)nc1 [Compound 229, (2R,3R)—N-{3-[5-amino-3-cyclopropyl-2-(trifluoromethyl)-3,6-dihydro-2H-1,4-oxazin-3-yl]-4-fluorophenyl}-5-cyanopyridine-2-carboxamide] | – | – | 44.7 | – | – | – | – | – | 181.79 | 14.1 | 14.5 |
| C[C@]1(c2cc(-c3cncnc3)c(F)cc2F)N=C(N)CO[C@H]1C(F)(F)F [Compound 254] | – | – | 851 | – | – | – | – | – | 101.3 | 347 | 316 |
| C[C@]1(c2cc(-c3cncc(Cl)c3)c(F)cc2F)N=C(N)CO[C@H]1C(F)(F)F [Compound 255] | – | – | 447 | – | – | – | – | – | 141.4 | 398 | 347 |
| COc1cnc(C(=O)Nc2ccc(F)c([C@]3(C4CC4)COCC(N)=N3)c2)cn1 [Compound 299] | – | – | 170 | – | – | – | – | – | 196.4 | 24 | 21.4 |
| CCC1(c2cc(NC(=O)c3cnc(OC)cn3)ccc2F)N=C(N)COC1(F)C(F)(F)F (stereo not drawn) [Compound 301] | 7.14 | 7.17 | 81.3 | – | – | – | – | – | 196.44 | – | – |
| CCC1(c2cc(-c3cncnc3)ccc2F)N=C(N)COC1(F)C(F)(F)F (stereo not drawn) [Compound 303] | 5.73 | 5.76 | 1820 | – | – | – | – | – | 204.89 | – | – |
| COc1ccc(C(=O)Nc2ccc(F)c([C@@]3(C)N=C(N)CO[C@@]3(F)C(F)(F)F)c2)nc1 [Compound 305] | – | – | 41.7 | – | – | – | – | – | 123.8 | 25.1 | 25.1 |
| Cc1cc(Br)cnc1C(=O)Nc1ccc(F)c([C@@]2(C3CC3)N=C(N)CO[C@@H]2F)c1 [Compound 314] | – | – | 55 | – | – | – | – | – | 132.03 | 83.2 | 57.5 |
| C[C@]1(c2cc(-c3cncc(C#N)c3)c(F)cc2F)N=C(N)CO[C@@H]1C(F)(F)F [Compound 317] | – | – | 2040 | – | – | – | – | – | 177.94 | 550 | 468 |
